Data set [1] relates to NCC-HN1, NCC-HN120M and NCC-HN182M cells. Description: Cell proliferation assay and IC50 determination, TKI and EV co-treatment, HNSCC cell line panel. The format is cell-based, human.
Experimental: To test the response of head and neck squamous cell carcinomas (HNSCC) cell lines to tyrosine kinase inhibitors (TKIs) in the presence of EGFR exosomal isoform D, three primary cell lines, namely NCC-HN1, NCC-HN120M and NCC-HN182M, were used. […] NCC-HN1, NCC-HN120M and NCC-HN182M cells were treated with eight tyrosine kinase inhibitors, each individually, in the presence of exosome (EV) derived from NCC-HN19 and NCC-HN137P cells.
Cells were seeded in 100 μl complete growth medium at a density of 1,000-3,000 cells/well in 96-well tissue culture plates. […] Plates were incubated for 72 hours at 37° C. after which cell viability was assessed using CellTitre-Glo® Luminescent Assay according to the manufacturer's protocol (Promega, Madison, WI).
Data set [2] deals with NCC-HN1 cells. Nature of the data set: Cell proliferation assay (CellTitre-Glo), TKI and EV co-treatment, NCC-HN1. The format is cell-based, human. How it is done: Extracellular vesicle (EV) collection and isolation were carried out as previously described*. Briefly, cells were grown in T-175 tissue culture flasks with conditioning medium (NCM). After 72 hours incubation, the NCM was collected and spun down at 1,200 rpm for 10 minutes to remove cell debris. The supernatant was then filtered through a 0.22 um filter (PES) and the filtrate was loaded into Amicon® Ultra-15 Centrifugal Filter Unit (Merck Millipore, Kenilworth, NJ). The medium was concentrated and subjected to a final wash with 1×PBS before reconstituting to 1/60 of the original volume. To reduce extracellular vesicle batch variation, every five extracellular vesicle batches were pooled into a single batch for analysis and treatment. *Reference: Rodrigues-Junior, D. M. et al. Circulating extracellular vesicle-associated TGFβ3 modulates response to cytotoxic therapy in head and neck squamous cell carcinoma. Carcinogenesis 1-13 (2019). doi:10.1093/carcin/bgz148
Cells were seeded in 100 μl complete growth medium at a density of 1,000-3,000 cells/well in 96-well tissue culture plates. Cells were washed with 1×PBS to remove remaining medium residue prior treatment. […] Plates were incubated for 72 hours at 37° C. after which cell viability was assessed using CellTitre-Glo® Luminescent Assay according to the manufacturer's protocol (Promega, Madison, WI).

Data set [3] is described as follows: Mouse body weight after afatinib and EV co-treatment. Format: in vivo. The following applies: daily oral afatinib with 72-hourly peri-tumoural EV injection. An excerpt: Arrow indicates commencement of daily oral afatinib administration with 72-hourly peri-tumoural extracellular vesicle (EV) injection. This confirms that the therapy delivered to the mice in FIG. 25 had minimal side effects/toxicity during the course of the experiment.

We go through four compounds from patent US12642838B2, “Method of modulating sensitivity to tyrosine kinase inhibitor” (SINGAPORE HEALTH SERVICES PTE LTD, priority 2020, dated 2026).

The structures appear in SMILES notation.

With `COc1cc2ncnc(Nc3ccc(F)c(Cl)c3)c2cc1NC(=O)/C=C/CN1CCCCC1` [dacomitinib], the “sensitivity of HNSCC cells to the TKI on co-treatment with exosomes containing overexpressed EGFR isoform D” value in data set [1] (EV from 293T, FIG. 11H (NCC-HN1 and NCC-HN120M)) is on record as “sensitized”. Also, the “sensitivity of TKI-resistant cells to the TKI on application of EVs from sensitive cells” value in data set [1] (EV from HN19 and HN137P applied to HN1, HN120M, HN182M) is reported as “sensitises these resistant cells”.

For `COc1cc2ncnc(Nc3ccc(F)c(Cl)c3)c2cc1OCCCN1CCOCC1` [gefitinib], the “response of cells to TKI without exosome” value in data set [2] (no exosome treatment) is given as “normally resistant”.

In the case of `O=C1NC(=NS(=O)(=O)c2cccc3ccccc23)S/C1=C\c1ccc(Br)cc1` [PitStop2], the “effect on the sensitising effect of isoform D containing EVs” value in data set [2] (1 μM PS2 with 293T pBob-IsoD EV) is on record as “reduces the sensitising effect of isoform D containing EVs”.

For the compound `CN(C)C/C=C/C(=O)Nc1cc2c(Nc3ccc(F)c(Cl)c3)ncnc2cc1O[C@H]1CCOC1` [afatinib], the mouse body weight entry in data set [3] was “no changes in mouse body weight”.
